Consider two compounds from patent US20040048860A1, “Use of selective noradrenaline reuptake inhibitors for the treatment of tension-type headache” (priority 2000, published 2004).

Entries after “also recorded” stand apart in the source; their conditions may differ. Like-named read-outs stand apart in the source and are kept apart here.

Data set [1] concerns chronic tension-type headache. The conditions noted are these: prophylactic; cited from earlier work.
Data set [2] deals with chronic tension-type headache. Put plainly: Prophylactic treatment with reboxetine in patients with chronic tension-type headache (headache diary). In kind it is in vivo, human. The source says: Prophylactic treatment with reboxetine has been given to 10 patients with chronic tension-type headache treated at the outpatient headache clinic at the Department of Neurology, Glostrup Hospital, University of Copenhagen, Denmark. There were 5 women and 5 men with a mean age of 44 years. All patients had been suffering from chronic tension-type headache for several years, and had been treatment resistant to other headache prophylactics. Before treatment, the patents underwent a general and a neurological examination and completed a diagnostic headache diary during a four-week run-in period.
The patients filled in a headache diary before and during treatment recording headache characteristics, accompanying symptoms and intake of analgesics.
In total, 10 patents have been treated with reboxetne (as the methanesulphonate salt). […] The patents were instructed to take the tablet two to three hours before bedtime. Four patients stopped treatment within the first 4 weeks due to side effects. […] Efficacy was estimated to be very good in 66% of the patients that fulfilled the treatment series.

Setting [3] is: patients with chronic tension-type headache, 4 mg to 8 mg once daily, headache diary.

In the case of `CN(C)CCC=C1c2ccccc2CCc2ccccc21` [Amitriptyline], in data set [1], the reduces headache is listed as 30%; the side effects entry is “many side effects, such as sedation and dryness of mouth”.

As for `CCOc1ccccc1OC(c1ccccc1)C1CNCCO1` (stereo not drawn) [reboxetne, 2-[α-(2-ethoxy)-phenoxy-benzyl]morpholine], the “Efficacy estimated to be very good, share of the patients that fulfilled the treatment series” value in data set [2] (6 patients that completed the treatment series) is listed as 66%. Moreover, the side effects entry in data set [2] (10 patients treated, 4 mg to 8 mg once daily) is “Sleeping problems and dizziness were the most common side effect; also recorded: No serious side effects were reported”. Moreover, in data set [2] (setting [3]), the “reduction in consumption of analgesics” value is given as 55%, the reduction in intensity amounted to 78% and the “reduction of AUC (intensity×duration)” value stood at 47%. In addition, the Headache frequency reduced in data set [2] (patients with chronic tension-type headache, initial dose 4 mg once daily, final dose 8 mg once daily, headache diary before vs during treatment) is 10%. Besides, in data set [2] (within the first 4 weeks, 10 patients treated), the “patients that stopped treatment due to side effects” value is reported as “Four”.
